Test results as given in article doi:10.1101/2025.05.30.657074, “A covalent recognition strategy enables conspecific mate identification” (bioRxiv, 2025).

Key:
BmOR1/Orco = BmOR1/Orco (Bombyx mori, UniProt Q5WA61); test: GCaMP6 calcium flux assay, wild-type BmOR1/Orco; type: cell-based
Source text: (§1) The first insect pheromone system characterized at the molecular level is that of Bombyx mori, a moth long known to navigate towards its mate guided solely by pheromone cues with impressive navigation accuracy. Two PR/Orco complexes, BmOR1/BmOrco and BmOR3/BmOrco, have been linked to the behavioral responses to pheromones in B. mori (Figure 1A). The conspecific pheromone, bombykol, is detected through BmOR1/Orco and leads to sexual attraction. The heterospecific pheromone, bombykal, is sensed through BmOR3/Orco, and leads to suppression of mating behavior. We first characterized the extent to which both PR/Orco complexes are selective towards their cognate ligands. We used a previously established calcium flux functional assay where we co-transfected HEK293 cells with either BmOR1 or BmOR3, along with the coreceptor, BmOrco (here on referred to as Orco), and the fluorescent calcium reporter, GCaMP6 (Figure 1C). In this assay, ligand-activation of the heteromeric ion channel complexes by addition of either bombykol or bombykal leads to calcium influx, read out as GCaMP6 fluorescence changes that can be monitored in real-time and dose-dependent manner using a fluorescence plate reader. […] But we also found both PR/Orco complexes to be somewhat promiscuous: both complexes are activated by their non-cognate pheromones (bombykal for BmOR1/Orco and bombykol for BmOR3/Orco) with a response that is ~10 fold smaller than their cognate pheromones. […] Instead, two complexes with reciprocal specificities enable an unequivocal response to bombykal and bombykol across all concentrations, ensuring the behavioral accuracy needed for mate selection.
(§2) The assay was performed similarly to method descriptions in previous studies.
(§3) All DNA constructs used in this assay were cloned into a modified pME18 vector that contains a SV40 promotor.
(§4) Each transfection condition (per well) contained a total of 300 ng of plasmids in 1:1:1 ratio of the GCaMP6, Orco, and the corresponding OR plasmid that was diluted in 4.8 uL of OptiMEM (Gibco) along with 0.1 uL of P3000. The mixture was incubated for 5 minutes and then further incubated for 20 minutes after being mixed with Lipofectamine 3000 (Invitrogen) diluted in OptiMEM. This mixture was scaled accordingly to batch transfect 50-100 wells per construct per plate.
(§5) HEK293T cells were maintained at 37°C with 5% carbon dioxide and grown in high glucose DMEM enhanced with 10% FBS and 1% GlutaMAX (Gibco). Cells were detached with TrypLE Express Enzyme and resuspended in FluoroBrite DMEM (Gibco) with 10% FBS and 1% GlutaMAX (Gibco) to a concentration of 5 × 10^5 cells/ml. Cells were combined with each transfection condition and added to 2x16 wells of a 384-well plate (Grenier CELLSTAR). Cells were kept at 37°C for 18-20 hours before being used for fluorescence plate reading.
(§6) Odorant plates were prepared using D300e (Hewlett Packard), a digital, non-contact dispenser. Briefly, stock solutions of bombykol and bombykal were prepared in DMSO and plated onto 384-plates (Greiner, Catalog #784201) in a titrating volume to obtain a concentration series ranging between 316 nM and 100 mM with a final volume of 0.2 µL.
(§7) The odorant plates were kept at −20 °C until usage.
(§8) On the day of the GCaMP6 assay, Bravo (Agilent), a versatile liquid handler was used to prepare both the odorant plate and the assay plate (transfected cell plate) prior to the fluorescence readout using the FDSS/µcell kinetic plate Imager (Hamamatsu, C13299).
(§9) For the odorant plate, the DMSO dissolved stock solutions were diluted in 19.8 µL of Reading buffer (20 mM HEPES/NaOH (pH 7.4), 1× HBSS (Gibco), 3 mM Na2CO3, 1 mM MgSO4, and 5 mM CaCl2) to give a final concentration ranging from 3.16 nM to 1 mM with 1% DMSO. For the cell plate, the FluoroBrite DMEM (Gibco) was exchanged out with the […]
(§10) The kinetics of the fluorescence change upon odorant addition were measured using the FDSS/µcell kinetic plate Imager (Hamamatsu, C13299). […]

BmOR3/Orco = BmOR3/Orco (Bombyx mori, UniProt Q5FBE0); test: GCaMP6 calcium flux assay, wild-type BmOR3/Orco; type: cell-based
Source text: as §1, §2, §3, §4, §5, §6, §7, §8, §9, §10

OR3_K58A = OR3_K58A (Bombyx mori, UniProt Q5FBE0, K58A); test: GCaMP6 calcium flux assay, BmOR3/Orco mutant K58A; type: cell-based
Source text: as §1, §2, §3, §4, §5, §6, §7, §8, §9, §10

OR3_K58S = OR3_K58S (Bombyx mori, UniProt Q5FBE0, K58S); test: GCaMP6 calcium flux assay, BmOR3/Orco mutant K58S; type: cell-based
Source text: as §1, §2, §3, §4, §5, §6, §7, §8, §9, §10

OR3_K58Q = OR3_K58Q (Bombyx mori, UniProt Q5FBE0, K58Q); test: GCaMP6 calcium flux assay, BmOR3/Orco mutant K58Q; type: cell-based
Source text: as §1, §2, §3, §4, §5, §6, §7, §8, §9, §10

OR3_C215A = OR3_C215A (Bombyx mori, UniProt Q5FBE0, C215A); test: GCaMP6 calcium flux assay, BmOR3/Orco mutant C215A; type: cell-based
Source text: (§11) The first insect pheromone system characterized at the molecular level is that of Bombyx mori, a moth long known to navigate towards its mate guided solely by pheromone cues with impressive navigation accuracy. Two PR/Orco complexes, BmOR1/BmOrco and BmOR3/BmOrco, have been linked to the behavioral responses to pheromones in B. mori (Figure 1A). The conspecific pheromone, bombykol, is detected through BmOR1/Orco and leads to sexual attraction. The heterospecific pheromone, bombykal, is sensed through BmOR3/Orco, and leads to suppression of mating behavior. We first characterized the extent to which both PR/Orco complexes are selective towards their cognate ligands. We used a previously established calcium flux functional assay where we co-transfected HEK293 cells with either BmOR1 or BmOR3, along with the coreceptor, BmOrco (here on referred to as Orco), and the fluorescent calcium reporter, GCaMP6 (Figure 1C). In this assay, ligand-activation of the heteromeric ion channel complexes by addition of either bombykol or bombykal leads to calcium influx, read out as GCaMP6 fluorescence changes that can be monitored in real-time and dose-dependent manner using a fluorescence plate reader. […]
(§12) HEK293T cells were maintained at 37°C with 5% carbon dioxide and grown in high glucose DMEM enhanced with 10% FBS and 1% GlutaMAX (Gibco). […] Cells were kept at 37°C for 18-20 hours before being used for fluorescence plate reading. […]
as §8
(§13) For the odorant plate, the DMSO dissolved stock solutions were diluted in 19.8 µL of Reading buffer (20 mM HEPES/NaOH (pH 7.4), 1× HBSS (Gibco), 3 mM Na2CO3, 1 mM MgSO4, and 5 mM CaCl2) to give a final concentration ranging from 3.16 nM to 1 mM with 1% DMSO. […]
as §10

OR3_C215S = OR3_C215S (Bombyx mori, UniProt Q5FBE0, C215S); test: GCaMP6 calcium flux assay, BmOR3/Orco mutant C215S; type: cell-based
Source text: as §11, §12, §8, §13, §10

OR3_F159A = OR3_F159A (Bombyx mori, UniProt Q5FBE0, F159A); test: GCaMP6 calcium flux assay, BmOR3/Orco mutant F159A; type: cell-based
Source text: as §11, §12, §8, §13, §10

OR3_L349A = OR3_L349A (Bombyx mori, UniProt Q5FBE0, L349A); test: GCaMP6 calcium flux assay, BmOR3/Orco mutant L349A; type: cell-based
Source text: as §11, §12, §8, §13, §10

OR3_L353A = OR3_L353A (Bombyx mori, UniProt Q5FBE0, L353A); test: GCaMP6 calcium flux assay, BmOR3/Orco mutant L353A; type: cell-based
Source text: as §11, §12, §8, §13, §10

OR3_V348A = OR3_V348A (Bombyx mori, UniProt Q5FBE0, V348A); test: GCaMP6 calcium flux assay, BmOR3/Orco mutant V348A; type: cell-based
Source text: as §11, §12, §8, §13, §10

OR3_V352A = OR3_V352A (Bombyx mori, UniProt Q5FBE0, V352A); test: GCaMP6 calcium flux assay, BmOR3/Orco mutant V352A; type: cell-based
Source text: as §11, §12, §8, §13, §10

B. mori male moths = test system: B. mori male moths; parameters: method as in PMID 24744736, PMID 22836825; conditions: conspecific male moths; cited from earlier work

OR3_F159A, sequence (Q5FBE0 entry or part of it F159A): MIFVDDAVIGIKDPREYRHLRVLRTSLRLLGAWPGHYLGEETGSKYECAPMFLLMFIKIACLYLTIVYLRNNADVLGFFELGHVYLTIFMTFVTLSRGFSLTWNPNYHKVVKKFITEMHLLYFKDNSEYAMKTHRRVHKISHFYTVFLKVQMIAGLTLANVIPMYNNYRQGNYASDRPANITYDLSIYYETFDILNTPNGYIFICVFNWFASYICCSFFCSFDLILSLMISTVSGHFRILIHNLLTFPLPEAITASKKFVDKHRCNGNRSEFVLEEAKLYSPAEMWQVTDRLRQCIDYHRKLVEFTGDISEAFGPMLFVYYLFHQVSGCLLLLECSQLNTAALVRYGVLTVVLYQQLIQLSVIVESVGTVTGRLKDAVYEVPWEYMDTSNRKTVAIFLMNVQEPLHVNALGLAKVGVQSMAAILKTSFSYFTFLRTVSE
OR3_F159A, sequence (Q7YT34 entry or part of it, stated change not applied, further chain): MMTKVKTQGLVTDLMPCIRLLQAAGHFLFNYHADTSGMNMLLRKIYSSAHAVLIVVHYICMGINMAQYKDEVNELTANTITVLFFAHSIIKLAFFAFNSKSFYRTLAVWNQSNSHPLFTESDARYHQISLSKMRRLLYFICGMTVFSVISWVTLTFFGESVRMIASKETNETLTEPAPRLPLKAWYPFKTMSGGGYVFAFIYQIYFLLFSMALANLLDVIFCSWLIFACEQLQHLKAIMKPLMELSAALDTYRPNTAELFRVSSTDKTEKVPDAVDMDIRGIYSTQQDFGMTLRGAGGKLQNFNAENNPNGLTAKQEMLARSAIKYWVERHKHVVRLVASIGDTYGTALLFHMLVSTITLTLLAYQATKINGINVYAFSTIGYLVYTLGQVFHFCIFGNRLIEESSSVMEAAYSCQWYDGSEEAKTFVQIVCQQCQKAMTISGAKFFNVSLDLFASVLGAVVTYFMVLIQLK
OR3_V352A, sequence (Q5FBE0 entry or part of it V352A): as the sequence (Q5FBE0 entry or part of it F159A) above, with A159F, V352A counted along it
OR3_V352A, sequence (Q7YT34 entry or part of it, stated change not applied, further chain): as the sequence (Q7YT34 entry or part of it, stated change not applied, further chain) above
BmOR3/Orco, sequence (Q5FBE0 entry or part of it): as the sequence (Q5FBE0 entry or part of it F159A) above, with A159F counted along it
BmOR3/Orco, sequence (Q7YT34 entry or part of it, further chain): as the sequence (Q7YT34 entry or part of it, stated change not applied, further chain) above
OR3_K58A, sequence (Q5FBE0 entry or part of it K58A): as the sequence (Q5FBE0 entry or part of it F159A) above, with K58A, A159F counted along it
OR3_K58A, sequence (Q7YT34 entry or part of it, stated change not applied, further chain): as the sequence (Q7YT34 entry or part of it, stated change not applied, further chain) above
OR3_K58Q, sequence (Q5FBE0 entry or part of it K58Q): as the sequence (Q5FBE0 entry or part of it F159A) above, with K58Q, A159F counted along it
OR3_K58Q, sequence (Q7YT34 entry or part of it, stated change not applied, further chain): as the sequence (Q7YT34 entry or part of it, stated change not applied, further chain) above
OR3_C215A, sequence (Q5FBE0 entry or part of it C215A): as the sequence (Q5FBE0 entry or part of it F159A) above, with A159F, C215A counted along it
OR3_C215A, sequence (Q7YT34 entry or part of it, stated change not applied, further chain): as the sequence (Q7YT34 entry or part of it, stated change not applied, further chain) above
OR3_V348A, sequence (Q7YT34 entry or part of it, stated change not applied): as the sequence (Q7YT34 entry or part of it, stated change not applied, further chain) above
OR3_V348A, sequence (Q5FBE0 entry or part of it V348A): as the sequence (Q5FBE0 entry or part of it F159A) above, with A159F, V348A counted along it
OR3_C215S, sequence (Q7YT34 entry or part of it, stated change not applied): as the sequence (Q7YT34 entry or part of it, stated change not applied, further chain) above
OR3_C215S, sequence (Q5FBE0 entry or part of it C215S): as the sequence (Q5FBE0 entry or part of it F159A) above, with A159F, C215S counted along it
BmOR1/Orco, sequence (Q7YT34 entry or part of it): as the sequence (Q7YT34 entry or part of it, stated change not applied, further chain) above
BmOR1/Orco, sequence (Q5WA61 entry or part of it): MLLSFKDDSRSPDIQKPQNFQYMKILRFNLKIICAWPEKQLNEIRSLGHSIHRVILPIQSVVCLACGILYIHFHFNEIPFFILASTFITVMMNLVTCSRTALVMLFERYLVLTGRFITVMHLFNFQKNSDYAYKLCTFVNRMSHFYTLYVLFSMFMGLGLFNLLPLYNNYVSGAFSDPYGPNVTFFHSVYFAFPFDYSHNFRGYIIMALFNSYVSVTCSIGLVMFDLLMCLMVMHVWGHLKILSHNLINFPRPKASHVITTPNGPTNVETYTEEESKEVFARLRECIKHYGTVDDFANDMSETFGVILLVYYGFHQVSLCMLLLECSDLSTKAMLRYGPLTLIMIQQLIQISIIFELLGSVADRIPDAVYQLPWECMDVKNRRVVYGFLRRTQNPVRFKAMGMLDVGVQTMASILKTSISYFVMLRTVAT
OR3_L349A, sequence (Q7YT34 entry or part of it, stated change not applied): as the sequence (Q7YT34 entry or part of it, stated change not applied, further chain) above
OR3_L349A, sequence (Q5FBE0 entry or part of it L349A): as the sequence (Q5FBE0 entry or part of it F159A) above, with A159F, L349A counted along it
OR3_K58S, sequence (Q5FBE0 entry or part of it K58S): as the sequence (Q5FBE0 entry or part of it F159A) above, with K58S, A159F counted along it
OR3_K58S, sequence (Q7YT34 entry or part of it, stated change not applied, further chain): as the sequence (Q7YT34 entry or part of it, stated change not applied, further chain) above
OR3_L353A, sequence (Q5FBE0 entry or part of it L353A): as the sequence (Q5FBE0 entry or part of it F159A) above, with A159F, L353A counted along it
OR3_L353A, sequence (Q7YT34 entry or part of it, stated change not applied, further chain): as the sequence (Q7YT34 entry or part of it, stated change not applied, further chain) above

CCC/C=C\C=C\CCCCCCCCC=O [Bombykal, bombykal]
EC50 (BmOR1/Orco; EC50, HEK293 cells co-transfected with BmOR1, BmOrco, GCaMP6): 3 µM
EC50 (BmOR1/Orco; Mean (-log EC50 ± SE), wild-type BmOR1/Orco): 3.02 µM
response to non-cognate pheromone, fold smaller than cognate pheromone (BmOR1/Orco; bombykal vs cognate bombykol at BmOR1/Orco): ~ 10 fold
Hill Coefficient (n± SE) (BmOR1/Orco; wild-type BmOR1/Orco): 1.41 ± 0.09
Max (ΔF/F ± SE) (BmOR1/Orco; wild-type BmOR1/Orco, ΔF/F at highest ligand concentration): 1.02 ± 0.05 ΔF/F
EC50 (BmOR3/Orco; EC50, HEK293 cells co-transfected with BmOR3, BmOrco, GCaMP6): 0.16 µM
EC50 (BmOR3/Orco; Mean (-log EC50 ± SE), wild-type BmOR3/Orco): 0.162 µM
Hill Coefficient (n± SE) (BmOR3/Orco; wild-type BmOR3/Orco): 1.12 ± 0.08
Max (ΔF/F ± SE) (BmOR3/Orco; wild-type BmOR3/Orco, ΔF/F at highest ligand concentration): 0.98 ± 0.05 ΔF/F
EC50 (OR3_K58A): 15.8 µM
Hill Coefficient (n± SE) (OR3_K58A; OR3_K58A): 0.8 ± 0.2
Max (ΔF/F ± SE) (OR3_K58A; OR3_K58A): 0.18± 0.03 ΔF/F
EC50 (OR3_K58S): 13.8 µM
Hill Coefficient (n± SE) (OR3_K58S; OR3_K58S): 1.2 ± 0.2
Max (ΔF/F ± SE) (OR3_K58S; OR3_K58S): 0.36 ± 0.03 ΔF/F
EC50 (OR3_K58Q): 10.2 µM
Hill Coefficient (n± SE) (OR3_K58Q; OR3_K58Q): 1.3 ± 0.1
Max (ΔF/F ± SE) (OR3_K58Q; OR3_K58Q): 0.68 ± 0.02 ΔF/F
EC50 (OR3_C215A): 3.16 µM
Hill Coefficient (n± SE) (OR3_C215A; OR3_C215A): 1.4 ± 0.3
Max (ΔF/F ± SE) (OR3_C215A; OR3_C215A): 0.82 ± 0.03 ΔF/F
EC50 (OR3_C215S): 1.26 µM
Hill Coefficient (n± SE) (OR3_C215S; OR3_C215S): 1.09 ± 0.07
Max (ΔF/F ± SE) (OR3_C215S; OR3_C215S): 0.82 ± 0.05 ΔF/F
EC50 (OR3_F159A): 12.6 µM
Hill Coefficient (n± SE) (OR3_F159A; OR3_F159A): 4 ± 2
Max (ΔF/F ± SE) (OR3_F159A; OR3_F159A): 0.16 ± 0.02 ΔF/F
EC50 (OR3_L349A): 3.39 µM
Hill Coefficient (n± SE) (OR3_L349A; OR3_L349A): 5 ± 3
Max (ΔF/F ± SE) (OR3_L349A; OR3_L349A): 0.48 ± 0.04 ΔF/F
EC50 (OR3_L353A): 0.501 µM
Hill Coefficient (n± SE) (OR3_L353A; OR3_L353A): 1.3 ± 0.2
Max (ΔF/F ± SE) (OR3_L353A; OR3_L353A): 0.91 ± 0.04 ΔF/F
EC50 (OR3_V348A): 0.479 µM
Hill Coefficient (n± SE) (OR3_V348A; OR3_V348A): 1.25 ± 0.08
Max (ΔF/F ± SE) (OR3_V348A; OR3_V348A): 1.13 ± 0.04 ΔF/F
EC50 (OR3_V352A): 0.537 µM
Hill Coefficient (n± SE) (OR3_V352A; OR3_V352A): 1.9 ± 0.2
Max (ΔF/F ± SE) (OR3_V352A; OR3_V352A): 0.63 ± 0.03 ΔF/F
behavioral response (B. mori male moths): suppresses mating behavior
